Results published in patent US20130196996A1, “USE OF ISOXAZOLINE COMPOUNDS AND COMPOSITIONS IN BLADDER CANCER” (CPSI STOCKHOLDER TRUST, priority 2010, published 2013).
“And” between values parts separate entries of the source, which are not always exact repeats. Identical values can stand only once.

Tests used:
[1] = system: BBN model of bladder cancer; assay: BBN model of bladder cancer, Experiment 1: bladder weight and pathology after oral gavage; type: in vivo, C57Bl/6 mice; details: for average bladder weight: Experiment 1, 25 mg/kg gavage weeks 16-22, control 0.5±0.5 gm; for mean of tissue involved with invasive disease (tumor burden) / upper tract obstruction (hydro-ureteronephrosis) at euthanasia: Experiment 1, 25 mg/kg gavage; for mean of tissue involved with invasive disease (tumor burden): SD ±30% (2705), ±32% (1306), control 81%; for upper tract obstruction (hydro-ureteronephrosis) at euthanasia: majority of control animals obstructed; for mean percentage of tumors representing invasive disease (FIG. 4E) / representative bladder tumor stage on H&E pathology: Experiment 1, 25 mg/kg; for mean percentage of tumors representing invasive disease (FIG. 4E): in words; for representative bladder tumor stage on H&E pathology: vehicle group infiltrative pT3 cancer; for Pieces involved / Pieces involved, in situ % / Pieces involved, inv % (invasive) / Squamous met and normal: Table 1, individual animal bladders, 25 mg/kg gavage weeks 16-22, 25 mg/kg
Method: (§1) Three-month old C57Bl/6 mice were purchased from Jackson Laboratories (Bar Harbor, Me.) and Charles River (Wilmington, Mass.). The animals were maintained at the University of Connecticut Center for Laboratory Animal Care under National Institutes of Health guidelines. All procedures were approved by an institutional animal care committee. The mice were housed in a controlled environment with a 12 hour light-12 hour dark cycle and provided food and water ad libitum.
(§2) All animals received BBN(N-butyl-N-(4-hydroxybutyl)-nitrosamine, TCI America, Portland, Oreg.) 0.05% in water in brown bottles for 22 weeks. BBN is known to induce cancer in the bladder. Mice were treated with either the CPSI compounds or vehicle for weeks 16-22. Timing of dosing was intended to correspond with the timeframe of tumor progression from CIS to invasive disease, as determined in prior experiments.
(§3) Thirty 3-month old male mice (n=10/group) were gavage fed either vehicle (PEG 300, methylcellulose) (control group), CPSI-2705, or CPSI-1306 at 25 mg/kg for weeks 16-22.
(§4) Animals were inspected daily for general health with weights recorded at least biweekly and more frequently in the last several weeks based on recorded weight loss. Animals were euthanized by CO2 inhalation and cervical dislocation. Bladders were harvested, weighed, placed in PBS/formaldehyde for 24 hours and then transferred to PBS. Upper tracts (kidney and ureters) were inspected for hydronephrosis. Bladders were assessed for tumor stage and grade and amount of pathologic involvement with invasive disease. Bladders were sectioned in the mid-sagital plane, laid flat on the medial surface and step sectioned for whole mount pathologic analysis. Haematoxylin and eosin (H&E) staining was carried out to assess for histology and pathology. Bladders were step sectioned, embedded in paraffin, serially sectioned and stained with H&E and assessed for tumor stage and grade and amount of pathologic involvement with invasive disease. A single pathologist reviewed all slides in a blinded manner to provide a pathological diagnosis. As a tumor develops in the bladder, the size and weight of the bladder increases. Bladder weight is therefore a useful surrogate for bladder tumor burden, representing the relative amount of bladder tumor that develops during continual exposure to the carcinogen, BBN.
(§5) Values shown are means±SEM. […] Statistical analysis was performed using SPSS® version 2.03 (San Rafael, Calif.). Differences were examined by one-way analysis of variance (ANOVA) followed by the post-hoc Dunnett's test.

[2] = system: BBN model of bladder cancer; assay: BBN model of bladder cancer, Experiment 2: escalating dose of CPSI-1306; type: in vivo, C57Bl/6 mice; details: for mean bladder weights at euthanasia as surrogate for tumor volume, effect vs vehicle: p<0.05 Dunnett post-hoc
Method: as §1, §2
Sixty 3-month old male mice (n=˜8/group) were gavage fed an escalating dose of CPSI-1306 (0.001, 0.01, 0.1, 1.0, 10 or 25 mg/kg) or vehicle (PEG 400, H2O) for weeks 16-22.
as §4, §5

[3] = Body weight, general health and survival of BBN mice, Experiment 1; type: in vivo
Method: as §2, §3
Animals were inspected daily for general health with weights recorded at least biweekly and more frequently in the last several weeks based on recorded weight loss. Animals were euthanized by CO2 inhalation and cervical dislocation. Bladders were harvested, weighed, placed in PBS/formaldehyde for 24 hours and then transferred to PBS. Upper tracts (kidney and ureters) were inspected for hydronephrosis. Bladders were assessed for tumor stage and grade and amount of pathologic involvement with invasive disease. […] Bladders were step sectioned, embedded in paraffin, serially sectioned and stained with H&E and assessed for tumor stage and grade and amount of pathologic involvement with invasive disease. […]

[4] = Experiment 2, dose escalation, in words

| SMILES | average bladder weight [1] | mean of tissue involved with invasive disease (tumor burden) [1] | upper tract obstruction (hydro-ureteronephrosis) at euthanasia [1] | mean percentage of tumors representing invasive disease (FIG. 4E) [1] | representative bladder tumor stage on H&E pathology [1] | mean bladder weight, fold less than control group ([1]; Experiment 1, FIG. 1, p=0.06) | Pieces involved [1] | Pieces involved, in situ % [1] | Pieces involved, inv % (invasive) [1] | Squamous met and normal [1] | mean bladder weights at euthanasia as surrogate for tumor volume, effect vs vehicle ([2]; Experiment 2, 0.1 mg/kg gavage weeks 16-22) | mean bladder weights at euthanasia as surrogate for tumor volume, effect vs vehicle ([2]; Experiment 2, 1.0 mg/kg gavage weeks 16-22) | mean percentage of tumor representing invasive disease (FIG. 5B) [2, 4] | percentage of bladders in each dosing group with each pathologic stage (FIG. 5A) [2, 4] | general health appearance during drug treatment ([3]; Experiment 1, 25 mg/kg gavage, compared to the other two treatment arms) | animals died prior to completion of the study ([3]; Experiment 1, n=10/group, 25 mg/kg gavage, control also two) |
| --- | --- | --- | --- | --- | --- | --- | --- | --- | --- | --- | --- | --- | --- | --- | --- | --- |
| O=C(C[C@H]1CC(c2ccc(F)cc2F)=NO1)N1CCOCC1 [CPSI-1306] | 0.2±0.2 gm | 59% | none seen | Smaller tumors with a smaller percentage of invasiveness | focal pT3 with areas of normal mucosa | 2.5 fold | 4 (6×) and 2 and 7 and 6 and 3 − inv, 1 − in situ | 5% (2×) and (15 + 15%) and 10% (2×) and 15% | 25% and (15 + 15%) and (20%) and (90%) (2×) and (95%) and 35% and 70% and 80% and 65% | 70% (2×) and 80% and 10% (3×) and <5% and 55% and 25% and 20% | significant effect | significant effect | Smaller tumors with a smaller percentage of invasiveness | A decrease in the percentage of higher stage tumors | appeared healthier |  |
| CN(C(=O)C[C@H]1CC(c2ccc(Cl)cc2)=NO1)C1CCCCC1 [CPSI-2705] | 0.3±0.3 gm | 62% | Fewer animals were noted to have obstruction | Smaller tumors with a smaller percentage of invasiveness | pT1 disease |  | 8 (3×) and 2 (2×) and 6 and 4 (2×) and 1 − inv, 3 − in situ and 10 | 10% (2×) and 5% (2×) and 20% | 80% and 85% and (60%) and (70%) and 60% and (30%) and 10% and 30% and (95%) (2×) | 10% (2×) and 40% and 30% (2×) and 70% (2×) and 65% and <5% (2×) |  |  |  |  |  | Two |
